Test [1] deals with hypercholesterolemic/diet induced obese C57BL/6 mouse. Briefly: Treatment of hypercholesterolemic/diet induced obese C57BL/6 mice with ezetimibe. The format is in vivo. The note with it: 5 mg/kg/day. The method, then: The hypercholesterolemic/diet induced obese C57BL/6 mouse can be used to evaluate the vivo efficacy of a cholesterol absorption inhibitor, ezetimibe, in combination with a selective CB1 receptor antagonist, rimonabant. Feeding mice a “western” diet containing 45 kcal % of fat and 0.15% cholesterol diet for 21 days increased plasma cholesterol to 150 mg/dL and increased hepatic cholesteryl esters 2-fold.
Nonfasted plasma cholesterol levels were determined by a modification of the cholesterol oxidase method, in which the reagents were available in a kit form from Wako Pure Chemicals Industries, Ltd. (Osaka, Japan). Samples of liver (0.2 g) were lipid extracted. Lipid extracts were dried under nitrogen into HPLC sample vials, resuspended in hexane and injected onto a Zorbax Sil (4.6×25 cm) silica column. Chromatography was performed using an isocratic mobile phase containing 98.8% hexane and 1.2% isopropanol at a flow rate of 2 mL/min. Lipids were detected by absorbance at 206 nm and quantitated by computer integration (System Gold, Beckman) of elution profiles. Elution time for cholesteryl ester was 1.45 min. Cholesteryl ester content of liver-derived samples was derived from a standard curve constructed using known amounts of cholesteryl oleate. Cholesteryl oleate was used as the standard since this is the major cholesteryl ester species present in the liver and this specific cholesteryl ester has an extinction coefficient that approximates that of a weighted average for all the cholesteryl esters present in the liver.

Test [2] concerns obese, hyperinsulinemic hamsters. The note with it: ezetimibe treatment; cited from earlier work.
A further test has as its system diet-induced obese mice. The note with it: mouse, in vivo; cited from earlier work.
Another test concerns patients. The following applies: cited from earlier work.
For a further test, the system named is Diet induced obese mice. Briefly: Treatment of diet induced obese C57BL/6 mice with rimonabant. The format is in vivo, mouse. The note with it: 1, 3 and 10 mg/kg p.o. once a day for 5 consecutive days; western diet 16 weeks; at all doses. The procedure: Plasma leptin and insulin were determined using commercially available ELISA kits (Crystal Chem and ALPCO for leptin and insulin, respectively). Whole body adiposity was determined using an NMR based method (EchoMRI, Echo Medical Inc.).

SMILES strings stand for the structures.

Consider 2 compounds from patent US20060069080A1, “Combinations of substituted azetidinones and CB1 antagonists” (priority 2004, published 2006).

As to `O=C1[C@H](CC[C@H](O)c2ccc(F)cc2)[C@@H](c2ccc(O)cc2)N1c1ccc(F)cc1` [Ezetimibe, ezetimibe], in test [1] (western diet 21 days), the “accumulation of hepatic cholesteryl esters” value is “completely inhibited”. In addition, the hepatic cholesteryl esters in test [1] (western diet 21 days, control 12.8 mg/g) was 4.6 mg/g. Moreover, the plasma cholesterol levels in test [1] (western diet (45 kcal % fat, 0.15% cholesterol) for 21 days, diet control 150 mg/dL) is given as 102 mg/dL. In addition, in test [2], the body weights entry is reported as “does not appear to cause any changes”, the food consumption result is “does not appear to cause any changes” and the plasma leptin levels result is listed as “does not appear to cause any changes”.
With `Cc1c(C(=O)NN2CCCCC2)nn(-c2ccc(Cl)cc2Cl)c1-c1ccc(Cl)cc1` [rimonabant], the plasma cholesterol levels entry in the test on diet-induced obese mice was “does not appear to reduce”. Also, in the test on patients, the “serum high density lipoprotein (HDL) levels” value was “increase” and the triglyceride levels result is “decrease”. For the same compound, in the test with Diet induced obese mice, the adiposity result was “significant dose dependent reduction”, the body weight result is reported as “significant dose dependent reduction”, the cumulative food intake entry is given as “significant dose dependent reduction” and the plasma insulin levels entry is on record as “significant dose dependent reduction”. Also, the plasma leptin levels result in the test with Diet induced obese mice was “significant dose dependent reduction”.
